According to patent publication US10770169B2, “Method of providing a treatment to a subject based on a dynamic pathway map” (THE REGENTS OF THE UNIVERSITY OF CALIFORNIA, priority 2010, dated 2020):
Where two headings read alike, the source gives them in different places.

Experiments:
[1] = tested on: luminal, basal, claudin-low and ERBB2AMP breast cancer cell lines; test: Associations of clinically relevant subtypes and response (non-parametric ANOVA or t-test on GI50 ranks); assay type: cell-based, human; conditions: Table 6; most sensitive subtype, FDR p<0.20
Procedure, shortened: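 Significance was set at FDR p<0.20 after combining p-values across three test sets. Subtype–response associations came from rank-based non-parametric ANOVA or t-tests on GI50. For three-class comparisons, post-hoc tests of each group against the rest identified the most sensitive group, with FDR correction.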

[2] = tested on: panel of 55 breast cancer cell lines; test: Cell growth inhibition assay (Cell Titer Glo, 72 h, 9 doses; GI50, TGI, LC50); assay type: cell-based, human; conditions: Homo sapiens, read-out: GI50 (converted)

For C#Cc1cccc(Nc2ncnc3cc(OCCOC)c(OCCOC)cc23)c1 [Erlotinib], the Subtype specificity [1] was “Basal”, the GI50 ([2]; AU565, AU565 cell line, censored GI50 values) was 13.2 µM and the GI50 ([2]; AU565, cell line AU565) was 13.2 µM. For the same molecule, the GI50 ([2]; BT-20, BT20 cell line, censored GI50 values) was 2 µM, the GI50 ([2]; BT-20, cell line BT20) was 2 µM and the GI50 ([2]; BT-474, BT474 cell line, censored GI50 values) was 10.5 µM. For the same molecule, the GI50 ([2]; BT-474, cell line BT474) was 10.5 µM, the GI50 ([2]; BT-483, cell line BT483) was 66.1 µM and the GI50 ([2]; BT-549, BT549 cell line, censored GI50 values) was 41.7 µM. The GI50 ([2]; BT-549, cell line BT549) was 41.7 µM, the GI50 ([2]; CAMA-1, cell line CAMA1) was 66.1 µM and the GI50 ([2]; HCC38, cell line HCC38) was 66.1 µM. The GI50 ([2]; HCC70, HCC70 cell line, censored GI50 values) was 1.74 µM, the GI50 ([2]; HCC70, cell line HCC70) was 1.74 µM and the GI50 ([2]; HCC202, HCC202 cell line, censored GI50 values) was 37.2 µM. For the same molecule, the GI50 ([2]; HCC202, cell line HCC202) was 37.2 µM, the GI50 ([2]; HCC1143, cell line HCC1143) was 57.5 µM and the GI50 ([2]; HCC1187, HCC1187 cell line, censored GI50 values) was 7.59 µM. The GI50 ([2]; HCC1187, cell line HCC1187) was 7.59 µM, the GI50 ([2]; HCC1395, HCC1395 cell line, censored GI50 values) was 39.8 µM and the GI50 ([2]; HCC1395, cell line HCC1395) was 39.8 µM. For the same molecule, the GI50 ([2]; HCC1419, HCC1419 cell line, censored GI50 values) was 10.7 µM, the GI50 ([2]; HCC1419, cell line HCC1419) was 10.7 µM and the GI50 ([2]; HCC1428, HCC1428 cell line, censored GI50 values) was 17.8 µM. The GI50 ([2]; HCC1428, cell line HCC1428) was 17.8 µM, the GI50 ([2]; HCC1500, HCC1500 cell line, censored GI50 values) was 6.46 µM and the GI50 ([2]; HCC1500, cell line HCC1500) was 6.46 µM. For the same molecule, the GI50 ([2]; HCC1806, HCC1806 cell line, censored GI50 values) was 4.27 µM, the GI50 ([2]; HCC1806, cell line HCC1806) was 4.27 µM and the GI50 ([2]; HCC1937, HCC1937 cell line, censored GI50 values) was 38.9 µM. For the same molecule, the GI50 ([2]; HCC1937, cell line HCC1937) was 38.9 µM, the GI50 ([2]; HCC1954, HCC1954 cell line, censored GI50 values) was 3.09 µM and the GI50 ([2]; HCC1954, cell line HCC1954) was 3.09 µM. It also gave a GI50 ([2]; HCC2185 cell line, censored GI50 values) of 23.4 µM, a GI50 ([2]; HCC3153 cell line, censored GI50 values) of 31.6 µM and a GI50 ([2]; LY2 cell line, censored GI50 values) of 33.1 µM. The GI50 ([2]; MCF7, cell line MCF7) was 66.1 µM, the GI50 ([2]; MDA-MB-157, cell line MDAMB157) was 50.1 µM and the GI50 ([2]; MDA-MB-175-VII, MDAMB175VII cell line, censored GI50 values) was 3.09 µM. It also gave a GI50 ([2]; MDA-MB-231, MDAMB231 cell line, censored GI50 values) of 39.8 µM, a GI50 ([2]; MDA-MB-231, cell line MDAMB231) of 39.8 µM and a GI50 ([2]; MDA-MB-361, cell line MDAMB361) of 64.6 µM. The GI50 ([2]; MDA-MB-436, cell line MDAMB436) was 55 µM, the GI50 ([2]; MDA-MB-453, cell line MDAMB453) was 44.7 µM and the GI50 ([2]; MDA-MB-468, MDAMB468 cell line, censored GI50 values) was 21.4 µM. For the same molecule, the GI50 ([2]; MDA-MB-468, cell line MDAMB468) was 21.4 µM, the GI50 ([2]; SK-BR-3, SKBR3 cell line, censored GI50 values) was 15.8 µM and the GI50 ([2]; SK-BR-3, cell line SKBR3) was 15.8 µM. It also gave a GI50 ([2]; SUM52PE, SUM52PE cell line, censored GI50 values) of 31.6 µM, a GI50 ([2]; SUM52PE, cell line SUM52PE) of 31.6 µM and a GI50 ([2]; SUM149PT, SUM149PT cell line, censored GI50 values) of 2 µM. The GI50 ([2]; SUM149PT, cell line SUM149PT) was 2 µM, the GI50 ([2]; SUM185PE, cell line SUM185PE) was 66.1 µM and the GI50 ([2]; SUM225CWN, SUM225CWN cell line, censored GI50 values) was 7.08 µM. For the same molecule, the GI50 ([2]; SUM225CWN, cell line SUM225CWN) was 7.08 µM, the GI50 ([2]; SUM1315MO2, SUM1315MO2 cell line, censored GI50 values) was 7.41 µM and the GI50 ([2]; SUM-159-PT, SUM159PT cell line, censored GI50 values) was 11.7 µM. The GI50 ([2]; SUM-159-PT, cell line SUM159PT) was 11.7 µM, the GI50 ([2]; T47D, cell line T47D) was 50.1 µM and the GI50 ([2]; UACC-812, UACC812 cell line, censored GI50 values) was 12.3 µM. The GI50 ([2]; UACC-812, cell line UACC812) was 12.3 µM, the GI50 ([2]; UACC-893, UACC893 cell line, censored GI50 values) was 12.3 µM and the GI50 ([2]; UACC-893, cell line UACC893) was 12.3 µM. It also gave a GI50 ([2]; ZR-75-1, cell line ZR751) of 66.1 µM, a GI50 ([2]; ZR-75B, cell line ZR75B) of 66.1 µM and a GI50 ([2]; cell line 600MPE) of 52.5 µM. It also gave a GI50 ([2]; cell line HCC2185) of 23.4 µM, a GI50 ([2]; cell line HCC3153) of 31.6 µM and a GI50 ([2]; cell line LY2) of 33.1 µM. It also gave a GI50 ([2]; cell line MDAMB134V) of 66.1 µM, a GI50 ([2]; cell line MDAMB175V) of 3.09 µM and a GI50 ([2]; cell line SUM1315MO) of 7.41 µM.
